Results as given in patent US20250177366A1, “COMPOSITIONS AND METHODS FOR ALLEVIATING PAIN AND REDUCING ADVERSIVENESS OF STIMULI” (UNIVERSITY OF WASHINGTON, priority 2021, published 2025).

Tests used:
larval zebrafish [1] = assay: Sensitized thermal aversion assay (28.5° vs 31.5° C. after AITC), small molecule screen; format: in vivo, Zebrafish (Danio rerio); details: 10 min incubation then AITC 0.5 μM
From the text: The Novel Analgesic AS1 reverses the valence of normally aversive stimuli. In a previously published study, a novel high throughput temperature discrimination assay utilizing larval zebrafish that modeled acute and sensitized temperature aversion were developed (FIG. 1A) (Curtright et al., PLoS One. 2015; 10:1-18). […] Also shown is that multiple small molecule analgesics could reverse acute and/or sensitized thermal aversion while non-analgesics could not.
Using the sensitized thermal aversion assay, a small molecule library was screened in order to identify targets in pain transduction pathways and potential entry points for therapeutic intervention. The compounds were selected from Chembridge's CNS-Set (https://www.chembridge.com), which consists of small molecules selected for blood brain barrier penetration and oral bioavailability. Compounds were selected from across the library to maximize the diversity of molecules screened. Small molecules were initially pooled (8 per pool) to maximize screening efficiency. […]
Thermal preference assay. […] Locomotor behavior was recorded using a Canon high-definition video camcorder suspended at a fixed position above the choice testing plate. […]

larval zebrafish [2] = assay: AITC aversion assay (chemical attraction/aversion, AITC-infused agarose); format: in vivo, Zebrafish (Danio rerio); details: AITC 100 mM in agarose
From the text: Whether the effects of AS1 extended beyond noxious temperature sensation or could also impact other somatosensory modalities was next explored. To accomplish this, a chemical attraction/aversion assay where a thin layer of agarose was deposited along the edges of a square arena (Jordi et al., Sci. Adv. 2018; 4:1-15) were adapted. Along one wall, the agarose contained the chemical to be tested, while the other three walls were lined with control agarose. It was anticipated that a chemical gradient would be established as chemical diffused from the agarose into the surrounding water. Larvae were pre-incubated in either vehicle or AS1 and then added to the arena and the distance of each larva from the chemical-infused agarose was measured. In control experiments where all four walls of the arena were lined with agarose only, AS1 and vehicle-treated larvae were dispersed evenly throughout the arena (FIG. 3). […] When the nociceptive chemical AITC (100 mM, 10,000× maximal effective dose) was tested, vehicle-treated larvae swam away from the AITC source.
Chemical attraction/aversion assays. The agarose attraction/aversion assay was adapted from previously described experiments (Jordi et al., Sci. Adv. 2018; 4:1-15). For the AITC aversion assay, AITC and DMSO were added to molten 0.8% agarose to achieve a final concentration of 100 mM AITC and 2% DMSO. For the AS1 attraction/aversion assay, AS1 and DMSO were added to 0.8% molten agar to achieve final concentrations of 50 mM and 2%, respectively. To construct the test chambers, the lids of 10×10 cm square petri dishes (insert cat #and company) were lined on four sides with either the test (chemical-containing) or plain agarose (300 μL per side) and allowed to solidify. For all experiments, 30-40 randomly selected 6 dpf zebrafish were caught with a 10 mL pipette pump (Bel-Air Products, cat #: 13683C) equipped with a glass wide-bored Pasteur pipet (Fisher Scientific, cat #: 22-037-540) and deposited into a standard 10 cm diameter petri dish (Fisher Scientific, cat #: 07-202-031). As much E2 media as possible was carefully removed using the same pipette. For single incubation experiments, 30 mL of 1× solutions of the control or test chemical was added to each petri dish, and fish were incubated for 10 minutes at 28.5° C. For double incubation experiments, 15 mL of 1× solutions containing control (DMSO) or test chemicals was added to the larvae-containing petri dish. Following a ten minute incubation, 15 mL of the second incubation solution (1× control or test chemical +/−2× AS1) was added to the petri dish, and the fish were incubated for a second ten minute block. The final concentration of DMSO in all solutions was 1%. In all double-incubation experiments, the final concentration of AS1 was 5 μM unless otherwise noted. After completion of the last incubation period, the contents of each petri dish were poured into separate agarose-lined square dishes. Swimming behavior was immediately recorded for 20 minutes using the same high-definition camcorder in the thermal preference assays.

## CC(C)c1ccc(C(=O)Nc2ccncc2)cc1 [AS1, 4-propan-2-yl-N-pyridin-4-ylbenzamide]
Larval zebrafish [1]
  sensitized thermal aversion / place preference: induced place preference for the noxious zone
Larval zebrafish [2]; 1 μM AS1
  attraction/aversion to AITC source: unable to induce attraction to AITC
Larval zebrafish [2]; 2.5 μM AS1
  attraction/aversion to AITC source: largely replicated the effects of 5 μM AS1
Larval zebrafish [2]; 5 μM AS1
  attraction/aversion to AITC source: strongly preferred to be near the AITC source
